Measurements reported in US20260325464A1, “COMPOSITIONS FOR MODULATING THE EXPRESSION OF AQUAPORINS IN NEURODEGENERATIVE DISORDERS” (priority 2023, published 2026).
Read-outs that look alike come from different tables or passages of the source. Marks after values point to notes of the source that are not given here.

Assays:
Alzheimer's disease = assay: Morris water maze (MWM) test in rats with AlCl3-induced Alzheimer's disease; type: in vivo, rat; details: for Escape Latency Time: p.o. + AlCl3 (100 mg/kg, i.p.), MWM at 17th day, Mean ± SEM, n = 6
Description: Morris water maze (MWM)—This test was performed as per protocol established by Ishola et al., Protective role of Spondiasmombin leaf and Cola acuminata seed extracts against scopolamine-induced cognitive dysfunction. Alexandria J Med. 2018; 54(1):27-39. MWM is a round water tank “diameter: 110 cm and height: 60 cm” consisting of a white surface and that is filled using opaque water (Temp. 26±2° C.) to a distance (depth) of 30 cm. The MWM tank circle is divided into 4 equal quadrants [North Quadrant 1, East Quadrant 2, West Quadrant 3, and South Quadrant 4]. Further, it consists of a 10 cm diameter platform in a constant position. Index of memory improvement is measured by the Escape Latency Time (ELT)—which is the time the animal takes to find the platform.
The MWM plays an important role in the testing of learning and memory in rodent models of Alzheimer's Disease. It is used to test hippocampal-dependent learning, including acquisition of spatial memory and long-term spatial memory (Bromley-Brits et al., Morris water maze test for learning and memory deficits in Alzheimer's disease model mice, J Vis Exp., 2011 Jul. 20:(53):2920). In this study, learning was impaired in the Alzheimer's group.

BDNF = BDNF level in brain homogenate (ELISA), AlCl3 Alzheimer's model; type: in vivo, rat; details: for BDNF: p.o. + AlCl3 (100 mg/kg, i.p.), brain homogenate, Mean ± SEM, n = 6
Text: Brain-derived neurotrophic factors (BDNFs) play an important role in maintaining synaptic plasticity in learning and memory. Depletion of BDNF has been linked with Aβ accumulation, tau phosphorylation, neuroinflammation and neuronal apoptosis. Considering AD as a synaptic disorder, BDNF has attracted increasing attention as a potential diagnostic biomarker and a therapeutical molecule for AD. In the current study, BDNF levels were determiner using ELISA kit (Krishgen Biosystems, India).

[1] = test system: acetylcholinesterase (AChE); details: for Ach E: p.o. + AlCl3 (100 mg/kg, i.p.), brain homogenate, Mean ± SEM, n = 6
Description: At the conclusion of the study, the rats were euthanized by decapitation, and their brains were swiftly removed and placed in ice-cold saline solution. The cortex and hippocampus were carefully isolated and submerged in an ice-cold water container to halt enzymatic reactions. The levels of acetylcholinesterase (AChE) and butyrylcholinesterase (BChE) in the cortex and hippocampus regions of the brain were determined using Ellman's method from 1961. Approximately 100 mg of the isolated brain sections were weighed and homogenized in phosphate buffer (0.1 M, pH 8.0). To 0.4 mL of the homogenate, the following components were added: 2.6 mL of phosphate buffer (0.1 M, pH 8.0), 100 μL of 10 mM 5,5-dithio-bis-(2-nitrobenzoic acid) (DTNB), and 20 μL of acetylthiocholine iodide (AChI) solution (0.075 M). The mixture was thoroughly mixed. The absorbance was then measured at 412 nm for a duration of 5 minutes.
n=6, All the values were expressed in Mean±SEM (n=6). The statistical analysis was carried out using one way ANOVA.

Parkinson's disease = assay: Catalepsy test in rats with reserpine-induced Parkinson's disease; type: in vivo, rat; set-up: catalepsy score at 30 min / catalepsy score at 60 min / catalepsy score at 120 min: unit not given here; details: for catalepsy score at 30 min / catalepsy score at 60 min / catalepsy score at 120 min: p.o. + Reserpine (4 mg/kg, s.c.), Mean ± SEM, n = 6
Text: The induction of Parkinson's disease and measurement of other parameters were done as per the reported protocol (Santos et al., Cognitive, motor and tyrosine hydroxylase temporal impairment in a model of parkinsonism induced by reserpine. Behav Brain Res. 2013; 253:68-77 and Shishehbore et al. A novel kinetic spectrophotometric method for the determination of dopamine in biological and pharmaceutical samples. J Chem. 2013; 2013:1-6). Induction of Parkinson's disease was done by administering Resperine, which inhibits the monoamine vesicular transporters, thus decreasing the levels of monoamine neurotransmitters in the brain. Following pretreatment for 14 days with Gingerenone A, the rat groups received subcutaneous injections of reserpine (4 mg/kg) for the final five days of the treatment regimen. Resperine (5 mg) was dissolved in 1 ml of 1% acetic acid and then diluted tenfold with distilled water to achieve a final concentration of 500 μg/ml. The normal control group received saline with 1% acetic acid […], administered from day 10 to day 14. Thirty minutes following the administration of reserpine on the 14th day, behavioural assessments were conducted using the Open Field test, Y Maze, and Catalepsy tests to evaluate changes. Rats administered with Carbidopa, a known drug for the management of Parkinson's disease was also used for comparison. Upon completion of the study, brains were harvested for biochemical analyses and histopathological studies. The experimental group is depicted in table 10.
NeuroMol Med. 202022(2):314-330. Catalepsy in rats' manifests as an unresponsiveness to external stimuli accompanied by muscle rigidity. During the catalepsy test, rats were positioned on a wooden bar elevated 3-9 cm above the surface, with their forelimbs resting on it after administration of reserpine. The time taken for the rats to correct their posture was recorded as an indicator of catalepsy. Catalepsy ceased either when the rats climbed up the bar or when their forelimbs touched the floor. Observations were made at 30, 60, and 120 minutes after administration. All assessments were conducted in a quiet environment at a temperature of 23-25 degrees Celsius, with a maximum observation time of 5 minutes per trial.

Aquaporin-4 (AQP4) = assay: AQP4 expression in brain homogenate (ELISA), AlCl3 Alzheimer's model; type: in vivo, rat; details: 5, 10 and 20 mg/kg, FIG. 1
Text: Aquaporin-4 (AQP4) is a channel protein that plays a fundamental role in glymphatic system, a pathway for fluid exchange in the central nervous system, as well as a central figure in the pathophysiology of neurodegenerative diseases such as Alzheimer's disease (AD) and frontotemporal dementia. It plays an important role in maintaining cerebral fluid homeostasis by acting as a water channel protein. The AQP4 not only enables water permeability through the blood-brain barrier and also regulates water exchange between perivascular spaces and the rest of the glymphatic system (Szczygielski et al., Cerebral Microcirculation, Perivascular Unit, and Glymphatic System: Role of Aquaporin-4 as the Gatekeeper for Water Homeostasis, Front. Neurol. 12:767470, doi: 10.3389/fneur.2021.767470). Further, Astrocytes are known to maintain extracellular potassium concentrations in the brain by a process termed “potassium siphoning”. Changes in potassium channel function alters brain homeostasis leading to brain impairment. Water movement via the AQP4 water channel localized to astrocyte end-feet maintains osmotic balance and promotes effective potassium siphoning (Verkman A S, Aquaporins in Clinical Medicine, Annu. Rev. Med. 2012. 63:303-16). […] In the present study, the levels were determined using ELISA kit (Biogenuix Medsystems Pvt. Ltd.).

## COc1cc(CC/C=C/C(=O)CCc2ccc(O)c(OC)c2)ccc1O [Gingerenone A]
Alzheimer's disease; 5 mg/kg
  Escape Latency Time: 34.47 ± 3.87 s
Alzheimer's disease; 10 mg/kg
  Escape Latency Time: 27.73 ± 2.18 s
Alzheimer's disease; 20 mg/kg
  Escape Latency Time: 27.82 ± 2.63 s
Alzheimer's disease; AlCl3 model, Table 4
  learning and memory in MWM (in words): significantly improved learning and memory
BDNF; 5 mg/kg
  BDNF: 29.36 ± 1.09 pg/mL
BDNF; 10 mg/kg
  BDNF: 36.07 ± 1.54 pg/mL
BDNF; 20 mg/kg
  BDNF: 38.76 ± 2.05 pg/mL
BDNF; AlCl3 model, Table 6
  levels of BDNF (in words): significantly increased the levels of BDNF
[1]; 5 mg/kg
  Ach E: 11.76 ± 0.93 10^−6 /mol/g of tissue
[1]; 10 mg/kg
  Ach E: 8.77 ± 0.49** 10^−6 /mol/g of tissue
[1]; 20 mg/kg
  Ach E: 6.87 ± 0.34** 10^−6 /mol/g of tissue
[1]; AlCl3 model, Table 5
  Acetyl cholinesterase (in words): significantly inhibited Acetyl cholinesterase
Parkinson's disease; 5 mg/kg
  catalepsy score at 30 min: 2.46 ± 0.15
  catalepsy score at 60 min: 2.52 ± 0.54
  catalepsy score at 120 min: 2.43 ± 0.70
Parkinson's disease; 10 mg/kg
  catalepsy score at 30 min: 1.76 ± 0.11
  catalepsy score at 60 min: 1.72 ± 0.73
  catalepsy score at 120 min: 1.71 ± 0.75
Parkinson's disease; 20 mg/kg
  catalepsy score at 30 min: 1.58 ± 0.16
  catalepsy score at 60 min: 1.55 ± 0.32
  catalepsy score at 120 min: 1.50 ± 0.82
Parkinson's disease; reserpine model, Table 13
  muscle rigidity in catalepsy test (in words): significantly improved muscle rigidity
Aquaporin-4 (AQP4)
  AQP4 expression (in words): increased AQP4 expression
